Test results taken from ChEMBL document CHEMBL5131551, “Novel Bicyclic Dione Compounds as KRAS Inhibitors for Treating Cancer” (ACS Med Chem Lett, 2022).

Assays:
GTPase KRas [1] = target: T1, GTPase KRas (Homo sapiens, UniProt P01116, G12C); assay: Inhibition of KRAS G12C mutant in human MIA PaCa-2 cells assessed as reduction in phosphorylated ERK level incubation for 2 to 4 hrs by HTRF assay; format: cell-based
GTPase KRas [2] = target: T1, GTPase KRas; assay: Inhibition of BODIPY loaded KRAS G12C mutant (unknown origin) assessed as inhibition of GDP-GTP exchange rate preincubated for 2 hrs and measured after 2 hrs in presence of SOS1-GppNHp mixture by BODIPY fluorescence based PHERAstar plate reader analysis

T1 sequence (P01116 whole entry G12C): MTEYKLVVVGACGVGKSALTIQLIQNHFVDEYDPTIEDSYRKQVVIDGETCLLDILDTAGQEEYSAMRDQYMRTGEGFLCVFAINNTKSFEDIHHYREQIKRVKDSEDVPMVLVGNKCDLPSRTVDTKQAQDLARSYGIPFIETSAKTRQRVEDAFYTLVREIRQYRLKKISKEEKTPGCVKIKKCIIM

Compound | IC50 (GTPase KRas [1]) | IC50 (GTPase KRas [2])
C=CC(=O)N1CC(F)(Cn2c(=O)c(=O)n(-c3c(C)ccnc3C(C)C)c3nc(-c4c(F)ccc(F)c4O)c(Cl)cc32)C1 | ≤ 100 nM | ≤ 100 nM
C=CC(=O)N1CC(F)(Cn2c(=O)c(=O)n(-c3c(C)ccnc3C(C)C)c3nc(-c4c(Cl)ccc5c4OCO5)c(Cl)cc32)C1 | ≤ 100 nM | ≤ 100 nM
C=CC(=O)N1CC(F)(Cn2c(=O)c(=O)n(-c3c(C(C)C)cccc3C(C)C)c3nc(-c4cc(O)cc5ccccc45)c(Cl)cc32)C1 | ≤ 100 nM | ≤ 100 nM

Other lines, results leading:

IC50 (GTPase KRas [1]) | IC50 (GTPase KRas [2]) | Compound
≤ 100 nM | ≤ 100 nM | C=CC(=O)N1CC(F)(Cn2c(=O)c(=O)n(-c3c(C)ccnc3C(C)C)c3nc(-c4ccccc4F)c(Cl)cc32)C1
≤ 100 nM | ≤ 100 nM | C=CC(=O)N1CC(F)(Cn2c(=O)c(=O)n(-c3c(C)ccnc3C(C)C)c3nc(-c4c(N)cccc4F)c(Cl)cc32)C1
≤ 100 nM | ≤ 100 nM | C=CC(=O)N1CC(F)(Cn2c(=O)c(=O)n(-c3c(C)ccnc3C(C)C)c3nc(-c4cccc(Cl)c4Cl)c(Cl)cc32)C1
